From ChEMBL document CHEMBL1146899, “Redefining the structure-activity relationships of 2,6-methano-3-benzazocines. 4. Opioid receptor binding properties of 8-[N-(4'-phenyl)-phenethyl)carboxamido] analogues of cyclazocine and ethylketocycalzocine” (J Med Chem, 2006)
pKi: −log10 of the molar value. Calls of active or inactive are those of the source. The calls are words filed in the database; no cut-off is given here.

How the values were obtained:
[1] = biological target: Kappa-type opioid receptor (Homo sapiens, UniProt P41145); assay: biochemical; assay type: cell-based, CHO
Description: Displacement of [3H]U-69593 from human kappa opioid receptor expressed in CHO cells

[2] = biological target: Delta-type opioid receptor (Homo sapiens, UniProt P41143); assay: Displacement of [3H]naltrindole from human delta opioid receptor expressed in CHO cells; assay type: cell-based
[3] = biological target: Mu-type opioid receptor (Homo sapiens, UniProt P35372); assay: Displacement of [3H]DAMGO from human mu opioid receptor expressed in CHO cells; assay type: cell-based
[4] = test system: Mus musculus; assay: Antinociceptive activity in mouse at 1 mg/kg, ip; assay type: functional, organism-based; design: dose 1 mg/kg

Chain of Delta-type opioid receptor (P41143 whole entry): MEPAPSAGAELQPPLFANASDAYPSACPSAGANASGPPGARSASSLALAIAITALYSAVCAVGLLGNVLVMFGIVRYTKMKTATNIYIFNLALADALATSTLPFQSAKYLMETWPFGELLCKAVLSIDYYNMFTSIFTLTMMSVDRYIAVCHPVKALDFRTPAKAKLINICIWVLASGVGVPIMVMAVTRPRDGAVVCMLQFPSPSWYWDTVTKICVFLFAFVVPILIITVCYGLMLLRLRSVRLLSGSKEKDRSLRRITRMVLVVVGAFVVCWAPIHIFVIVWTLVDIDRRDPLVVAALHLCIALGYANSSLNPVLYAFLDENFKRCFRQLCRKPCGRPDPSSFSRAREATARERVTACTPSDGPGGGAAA
Chain of Mu-type opioid receptor (P35372 whole entry): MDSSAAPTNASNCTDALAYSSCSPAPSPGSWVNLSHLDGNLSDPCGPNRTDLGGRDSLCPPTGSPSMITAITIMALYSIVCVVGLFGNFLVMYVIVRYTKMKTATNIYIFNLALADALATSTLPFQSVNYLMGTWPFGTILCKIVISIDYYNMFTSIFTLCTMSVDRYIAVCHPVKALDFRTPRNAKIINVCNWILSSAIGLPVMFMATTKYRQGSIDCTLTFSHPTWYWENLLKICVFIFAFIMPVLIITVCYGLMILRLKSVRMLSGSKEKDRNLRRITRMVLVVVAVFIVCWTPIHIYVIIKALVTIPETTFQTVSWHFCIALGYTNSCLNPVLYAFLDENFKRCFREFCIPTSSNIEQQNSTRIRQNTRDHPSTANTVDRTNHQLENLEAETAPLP
Chain of Kappa-type opioid receptor (P41145 whole entry): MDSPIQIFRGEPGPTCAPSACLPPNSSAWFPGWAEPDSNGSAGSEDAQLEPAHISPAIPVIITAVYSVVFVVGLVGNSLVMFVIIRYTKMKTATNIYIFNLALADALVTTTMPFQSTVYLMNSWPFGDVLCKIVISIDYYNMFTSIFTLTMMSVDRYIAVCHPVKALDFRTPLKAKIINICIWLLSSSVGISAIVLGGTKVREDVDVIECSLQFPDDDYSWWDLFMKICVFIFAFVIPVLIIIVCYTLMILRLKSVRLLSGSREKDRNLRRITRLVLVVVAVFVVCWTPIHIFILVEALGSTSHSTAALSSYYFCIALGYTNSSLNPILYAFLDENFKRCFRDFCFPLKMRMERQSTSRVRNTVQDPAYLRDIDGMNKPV

Work on `C[C@H]1C2Cc3ccc(C(=O)Nc4ccccc4)cc3[C@@]1(C)CCN2CC1CC1` yielded a pKi [1] of 6.57, a pKi [2] of 5.68 and a pKi [3] of 6.08.
In the case of `C[C@H]1C2Cc3ccc(C(N)=O)cc3[C@@]1(C)CCN2CC1CC1`, the Activity [4] was “Active” and the pKi [2] was 8.28.
`CC[C@@]12CCN(CC3CC3)C(C(=O)c3ccc(C(N)=O)cc31)[C@@H]2C` showed a pKi [1] of 9.33, a pKi [2] of 7.64 and a pKi [3] of 8.68.
Molecule `C[C@H]1C2Cc3ccc(C(=O)NCc4ccc(-c5ccccc5)cc4)cc3[C@@]1(C)CCN2CC1CC1` (mixture of isomers) has a pKi [1] of 7.59, a pKi [2] of 6.77 and a pKi [3] of 7.96.
`C[C@H]1C2Cc3ccc(C(=O)NCCc4ccccc4)cc3[C@@]1(C)CCN2CC1CC1` (mixture of isomers) showed a pKi [1] of 8.77, a pKi [2] of 7.23 and a pKi [3] of 8.46.
In the case of `C[C@H]1C2Cc3ccc(C(=O)NCCCc4ccccc4)cc3[C@@]1(C)CCN2CC1CC1` (mixture of isomers), the pKi [1] was 8.52, the pKi [2] was 7.33 and the pKi [3] was 8.60.
With `C[C@H]1C2Cc3ccc(C(=O)NCc4ccccc4)cc3[C@@]1(C)CCN2CC1CC1` (mixture of isomers) the pKi [1] was 7.44, the pKi [2] was 6.68 and the pKi [3] was 7.57.
In the case of `CC[C@@]12CCN(CC3CC3)C(C(=O)c3ccc(C(=O)NCCc4ccc(-c5ccccc5)cc4)cc31)[C@@H]2C` (mixture of isomers), the pKi [1] was 8.89, the pKi [2] was 8.41 and the pKi [3] was 8.51.
`C[C@H]1C2Cc3ccc(C(=O)Nc4ccc(-c5ccccc5)cc4)cc3[C@@]1(C)CCN2CC1CC1` (mixture of isomers) showed a pKi [1] of 7.57, a pKi [2] of 6.96 and a pKi [3] of 7.74.
With `C[C@H]1C2Cc3ccc(C(=O)N(C)CCc4ccc(-c5ccccc5)cc4)cc3[C@@]1(C)CCN2CC1CC1` (racemic) the pKi [1] was 7.96, the pKi [2] was 7.92 and the pKi [3] was 8.17.
